We go through three compounds from patent publication US20230257347A1 (priority 2020, published 2023).

Broadly, the EC50 is the concentration at which the effect is half-maximal. What is called IC50 is the midpoint of a concentration-inhibition curve.

The target of assay [1] is T1, Nuclear Hormone Glucocorticoid Receptor (GR) (Homo sapiens, UniProt P04150).
T1 sequence (P04150 1-777): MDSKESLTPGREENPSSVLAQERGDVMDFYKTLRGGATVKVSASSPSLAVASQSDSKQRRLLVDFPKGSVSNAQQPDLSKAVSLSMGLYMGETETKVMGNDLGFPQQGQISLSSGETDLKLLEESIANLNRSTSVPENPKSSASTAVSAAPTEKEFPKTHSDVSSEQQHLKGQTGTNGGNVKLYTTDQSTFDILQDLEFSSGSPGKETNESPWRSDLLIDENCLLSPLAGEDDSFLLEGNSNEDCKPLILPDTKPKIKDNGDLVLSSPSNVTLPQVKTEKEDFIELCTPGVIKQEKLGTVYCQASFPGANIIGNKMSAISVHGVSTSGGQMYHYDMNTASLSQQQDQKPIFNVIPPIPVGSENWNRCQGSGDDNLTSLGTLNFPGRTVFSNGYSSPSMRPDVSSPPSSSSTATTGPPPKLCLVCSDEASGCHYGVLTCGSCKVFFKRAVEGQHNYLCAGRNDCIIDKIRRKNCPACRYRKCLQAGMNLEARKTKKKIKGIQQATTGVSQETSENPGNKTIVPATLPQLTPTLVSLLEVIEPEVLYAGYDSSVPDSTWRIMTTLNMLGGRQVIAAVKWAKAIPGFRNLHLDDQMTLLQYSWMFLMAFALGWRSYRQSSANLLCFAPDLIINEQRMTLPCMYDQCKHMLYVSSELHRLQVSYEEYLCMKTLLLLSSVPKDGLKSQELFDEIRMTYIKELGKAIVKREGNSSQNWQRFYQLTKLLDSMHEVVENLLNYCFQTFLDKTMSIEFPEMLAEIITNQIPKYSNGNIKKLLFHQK
As to the kind of experiment: NHR Protein Interaction assay, GR. Type of assay: cell-based.

The target of assay [2] is Adrenergic Receptor β1 (ADRB1) (Homo sapiens, UniProt P08588). Description: cAMP assay, ADRB1. Type of assay: cell-based.
Assay [3] addresses T2, Insulin Receptor (tyrosine kinase) (INSR) (Homo sapiens, UniProt P06213).
T2 construct: made in house; host or cells: E. coli BL21-derived host (T7 phage) or HEK-293
As to the kind of experiment: KINOMEscan binding assay, INSR.

For assay [4], the target named is Muscarinic acetylcholine Receptor M3 (CHRM3) (Homo sapiens, UniProt P20309). As to the kind of experiment: cell-based.
The target of assay [5] is Adrenergic Receptor β2 (ADRB2) (Homo sapiens, UniProt P07550). Description: cAMP assay, ADRB2. Type of assay: cell-based.
Another assay concerns the target T3, Cyclooxygenase 2 (COX2) (Homo sapiens, UniProt P35354).
T3 construct: purchased BPS Bioscience
T3 sequence (P35354 18-604): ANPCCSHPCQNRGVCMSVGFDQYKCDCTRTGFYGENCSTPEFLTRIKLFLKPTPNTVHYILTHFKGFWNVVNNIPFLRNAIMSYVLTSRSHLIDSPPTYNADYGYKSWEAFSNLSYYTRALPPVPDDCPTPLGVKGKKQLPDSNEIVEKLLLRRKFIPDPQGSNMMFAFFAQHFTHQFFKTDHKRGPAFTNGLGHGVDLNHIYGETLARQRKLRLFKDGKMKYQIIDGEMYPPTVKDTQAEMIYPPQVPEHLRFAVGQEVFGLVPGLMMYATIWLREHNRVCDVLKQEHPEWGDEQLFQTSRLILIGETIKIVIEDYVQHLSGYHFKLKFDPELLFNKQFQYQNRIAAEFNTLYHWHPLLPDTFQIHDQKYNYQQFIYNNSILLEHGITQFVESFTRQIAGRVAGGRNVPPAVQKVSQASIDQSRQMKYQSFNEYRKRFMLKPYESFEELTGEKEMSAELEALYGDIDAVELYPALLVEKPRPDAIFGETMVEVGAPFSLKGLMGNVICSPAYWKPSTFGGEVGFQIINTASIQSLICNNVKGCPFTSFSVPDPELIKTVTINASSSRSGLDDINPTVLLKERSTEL
Description: Enzymatic assay, COX2. It counts as biochemical.

Assay [6] concerns the target T4, Adrenergic Receptor α1A (ADRA1A) (Homo sapiens, UniProt P35348).
T4 sequence (P35348 1-466): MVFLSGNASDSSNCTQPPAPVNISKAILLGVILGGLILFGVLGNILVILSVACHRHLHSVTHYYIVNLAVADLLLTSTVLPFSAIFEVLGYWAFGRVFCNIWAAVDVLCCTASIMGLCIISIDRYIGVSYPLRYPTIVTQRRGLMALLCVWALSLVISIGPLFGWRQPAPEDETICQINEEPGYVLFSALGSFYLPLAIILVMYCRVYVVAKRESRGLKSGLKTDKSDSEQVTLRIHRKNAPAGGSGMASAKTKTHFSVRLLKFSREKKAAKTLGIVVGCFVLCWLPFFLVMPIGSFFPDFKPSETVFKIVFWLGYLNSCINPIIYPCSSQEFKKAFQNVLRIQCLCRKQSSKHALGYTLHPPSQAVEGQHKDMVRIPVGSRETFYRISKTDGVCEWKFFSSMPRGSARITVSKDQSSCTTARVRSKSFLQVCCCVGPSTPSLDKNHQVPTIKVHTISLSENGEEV
As to the kind of experiment: Calcium flux assay, ADRA1A. It counts as cell-based. (In general: Calcium flux is commonly read through the fluorescence of an indicator in the cells.)

The test system of a further assay is MDMA-trained rats. Description: Drug discrimination in rats trained to distinguish MDMA from placebo. Type of assay: in vivo. The note with it: 1, 2, and 4 mg/kg intraperitoneal.

Each structure is given as a SMILES string. Counter-ions that a name gives are not always drawn.

Muscarinic acetylcholine Receptor M3 (CHRM3), sequence (P20309 whole entry): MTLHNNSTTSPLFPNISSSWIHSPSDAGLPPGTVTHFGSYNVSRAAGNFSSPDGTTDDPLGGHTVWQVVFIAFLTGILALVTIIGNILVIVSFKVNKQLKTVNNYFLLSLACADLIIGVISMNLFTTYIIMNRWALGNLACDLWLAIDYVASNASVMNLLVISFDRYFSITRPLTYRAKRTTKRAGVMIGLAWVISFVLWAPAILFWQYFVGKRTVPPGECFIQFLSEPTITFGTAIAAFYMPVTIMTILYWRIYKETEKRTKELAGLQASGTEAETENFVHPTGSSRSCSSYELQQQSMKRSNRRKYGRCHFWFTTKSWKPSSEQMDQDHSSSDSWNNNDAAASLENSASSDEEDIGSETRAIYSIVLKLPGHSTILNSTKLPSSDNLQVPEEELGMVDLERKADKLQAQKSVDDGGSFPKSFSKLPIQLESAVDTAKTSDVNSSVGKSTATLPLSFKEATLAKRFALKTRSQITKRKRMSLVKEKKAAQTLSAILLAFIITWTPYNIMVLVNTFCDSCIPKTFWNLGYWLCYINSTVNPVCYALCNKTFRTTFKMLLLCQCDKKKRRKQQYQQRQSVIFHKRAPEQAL
T2 sequence (P06213 28-1382): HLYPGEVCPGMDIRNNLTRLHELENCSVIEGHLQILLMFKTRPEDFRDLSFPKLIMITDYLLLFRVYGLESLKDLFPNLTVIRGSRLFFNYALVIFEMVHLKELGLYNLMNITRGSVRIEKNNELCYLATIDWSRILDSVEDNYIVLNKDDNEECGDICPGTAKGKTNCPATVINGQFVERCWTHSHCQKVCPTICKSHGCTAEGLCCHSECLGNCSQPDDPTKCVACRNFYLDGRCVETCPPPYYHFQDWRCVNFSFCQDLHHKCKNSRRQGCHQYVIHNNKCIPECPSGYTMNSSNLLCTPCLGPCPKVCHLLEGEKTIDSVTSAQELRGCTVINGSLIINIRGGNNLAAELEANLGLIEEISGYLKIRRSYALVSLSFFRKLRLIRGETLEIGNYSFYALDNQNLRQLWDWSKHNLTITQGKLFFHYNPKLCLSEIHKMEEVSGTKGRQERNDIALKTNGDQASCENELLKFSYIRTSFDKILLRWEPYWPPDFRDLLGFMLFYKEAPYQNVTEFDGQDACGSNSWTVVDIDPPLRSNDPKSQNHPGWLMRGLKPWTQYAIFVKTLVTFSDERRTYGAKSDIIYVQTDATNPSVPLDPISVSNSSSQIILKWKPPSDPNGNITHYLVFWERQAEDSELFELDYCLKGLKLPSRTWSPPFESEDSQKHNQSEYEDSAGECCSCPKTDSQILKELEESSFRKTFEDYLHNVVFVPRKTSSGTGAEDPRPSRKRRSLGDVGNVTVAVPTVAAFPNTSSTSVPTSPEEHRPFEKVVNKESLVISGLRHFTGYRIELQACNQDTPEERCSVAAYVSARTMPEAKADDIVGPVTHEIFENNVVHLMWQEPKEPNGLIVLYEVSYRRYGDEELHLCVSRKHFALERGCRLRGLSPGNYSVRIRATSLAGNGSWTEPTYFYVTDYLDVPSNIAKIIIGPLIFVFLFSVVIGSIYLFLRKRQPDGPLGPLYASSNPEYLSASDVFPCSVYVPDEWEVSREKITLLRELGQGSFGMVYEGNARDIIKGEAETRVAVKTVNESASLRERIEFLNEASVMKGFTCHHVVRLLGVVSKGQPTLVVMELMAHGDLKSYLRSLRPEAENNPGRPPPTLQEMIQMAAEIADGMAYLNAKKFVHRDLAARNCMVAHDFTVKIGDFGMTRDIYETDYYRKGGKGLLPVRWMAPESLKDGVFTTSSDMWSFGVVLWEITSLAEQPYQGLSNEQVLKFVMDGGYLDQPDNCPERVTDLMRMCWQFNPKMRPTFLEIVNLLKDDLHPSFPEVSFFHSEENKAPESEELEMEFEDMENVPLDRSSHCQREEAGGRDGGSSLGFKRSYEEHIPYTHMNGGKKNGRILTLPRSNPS
Adrenergic Receptor β2 (ADRB2), sequence (P07550 whole entry): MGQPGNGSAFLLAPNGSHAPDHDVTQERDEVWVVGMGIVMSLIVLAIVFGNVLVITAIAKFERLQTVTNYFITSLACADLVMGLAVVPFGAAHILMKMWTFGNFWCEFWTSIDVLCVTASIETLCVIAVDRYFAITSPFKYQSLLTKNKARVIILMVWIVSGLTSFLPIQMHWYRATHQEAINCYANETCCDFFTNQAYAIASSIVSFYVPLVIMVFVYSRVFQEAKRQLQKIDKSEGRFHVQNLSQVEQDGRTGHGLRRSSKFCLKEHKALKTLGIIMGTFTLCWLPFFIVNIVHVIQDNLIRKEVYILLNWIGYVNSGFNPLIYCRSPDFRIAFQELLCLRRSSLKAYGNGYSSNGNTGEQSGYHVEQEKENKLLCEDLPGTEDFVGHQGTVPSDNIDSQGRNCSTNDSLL
Adrenergic Receptor β1 (ADRB1), sequence (P08588 whole entry): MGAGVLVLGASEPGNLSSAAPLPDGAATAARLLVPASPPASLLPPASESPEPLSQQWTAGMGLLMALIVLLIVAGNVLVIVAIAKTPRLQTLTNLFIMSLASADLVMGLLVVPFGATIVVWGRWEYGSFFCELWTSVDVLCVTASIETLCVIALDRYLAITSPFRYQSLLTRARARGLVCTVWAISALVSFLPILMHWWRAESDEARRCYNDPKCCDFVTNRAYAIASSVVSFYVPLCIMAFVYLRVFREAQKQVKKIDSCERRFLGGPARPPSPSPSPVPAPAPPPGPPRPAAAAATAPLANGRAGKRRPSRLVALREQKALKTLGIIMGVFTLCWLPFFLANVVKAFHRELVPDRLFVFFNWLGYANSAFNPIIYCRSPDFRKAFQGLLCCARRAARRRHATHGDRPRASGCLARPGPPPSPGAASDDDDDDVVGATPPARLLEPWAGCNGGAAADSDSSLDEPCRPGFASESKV

For the compound `CNC(C)C(=O)c1c[nH]c2ccc(Br)cc12` (centres unmarked) [BK-5Br-NM-AMT, 1-(5-bromo-1H-indol-3-yl)-2-(methylamino) propan-1-one hydrochloride], the EC50 is over 10 µM in assay [1]; over 10 µM in assay [2]; over 10 µM in assay [4]; over 10 µM in assay [5]; 8.24 µM in assay [6]. Further, the 50% inhibitory concentration (IC50) is over 10 µM in assay [1]; over 10 µM in assay [2]; over 10 µM in assay [3]; over 10 µM in assay [4]; 5.44 µM in assay [5]; over 10 µM at Cyclooxygenase 2 (COX2). Also, the IC50 in assay [6] is over 10 µM.

Take `CNC(C)C(=O)c1c[nH]c2ccc(Cl)cc12` (centres unmarked) [BK-5Cl-NM-AMT, 1-(5-chloro-1H-indol-3-yl)-2-(methylamino) propan-1-one hydrochloride]: the EC50 in assay [1], in assay [2], in assay [4], in assay [5] and in assay [6] was over 10 µM throughout. Further, the IC50 in assay [1] was over 10 µM; in assay [2], over 10 µM; in assay [3], over 10 µM; in assay [4] it was over 10 µM; in assay [5] it was 8.68 µM; against Cyclooxygenase 2 (COX2), over 10 µM. In addition, the IC50 in assay [6] is over 10 µM.

On to `CNC(C)C(=O)c1c[nH]c2ccc(F)cc12` (centres unmarked) [BK-5F-NM-AMT, 1-(5-Fluoro-1H-indol-3-yl)-2-(methylamino) propan-1-one hydrochloride], for which the EC50 in assay [1], in assay [2], in assay [4], in assay [5] and in assay [6] was over 10 µM in each case. Besides, the half-inhibitory concentration (IC50) (in assay [1]; in assay [2]; in assay [3]; in assay [4]; in assay [5]; against Cyclooxygenase 2 (COX2)) was over 10 µM in each case. Moreover, in assay [6], the half-maximal inhibitory concentration (IC50) was over 10 µM. For the same compound, the “percent responses on the MDMA-associated lever” value in the assay on MDMA-trained rats (30 min prior to test, four MDMA-trained rats) was “significantly and dose-dependently different from those of MDMA”. In addition, in the assay with MDMA-trained rats (control measure), the “rate of lever pressing (responses per second)” value was “not altered”.
